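48-hour exposure; five concentrations; linearly interpolated endpoints. At the TGI there is no net growth.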
Tests used:
Experiment in all cases: inhibition of tumour cell growth, NCI panel, 48 h
[1] = test system: SW-620 colon
[2] = test system: MDA-MB-435
[3] = test system: SK-MEL-5 melanoma
[4] = test system: KM12 colon
[5] = test system: SR leukemia
[6] = test system: SF-539 CNS
[7] = test system: TK-10 renal
[8] = test system: MDA-MB-231 breast
[9] = test system: RPMI-8226 leukemia
[10] = test system: OVCAR-3 ovarian
[11] = test system: HOP-62 NSCLC
[12] = test system: OVCAR-8 ovarian
[13] = test system: MOLT-4 leukemia
[14] = test system: LOX IMVI melanoma
[15] = test system: PC-3 prostate
[16] = test system: UACC-62 melanoma
[17] = test system: NCI-H226 lung
[18] = test system: HCC-2998 colon
[19] = test system: 786-0 renal
[20] = test system: MALME-3M melanoma
[21] = test system: NCI/ADR-RES ovarian
[22] = test system: K-562 leukemia
[23] = test system: MCF7 breast
[24] = test system: UACC-257 melanoma
[25] = test system: SF-268 CNS
[26] = test system: NCI-H23 lung
[27] = test system: SNB-19 CNS
[28] = test system: CCRF-CEM leukemia
[29] = test system: OVCAR-5 ovarian
[30] = test system: IGROV1 ovarian
[31] = test system: M14 melanoma
[32] = test system: HT29 colon
[33] = test system: BT-549 breast
[34] = test system: A498 renal
[35] = test system: ACHN renal
[36] = test system: CAKI-1 renal
[37] = test system: OVCAR-4 ovarian
[38] = test system: SK-MEL-2 melanoma
[39] = test system: U251 CNS
[40] = test system: UO-31 renal
[41] = test system: HCT-116 colon
[42] = test system: MDA-N
[43] = test system: SF-295 CNS
[44] = test system: HCT-15 colon
[45] = test system: RXF 393 renal
[46] = test system: EKVX NSCLC
[47] = test system: T-47D breast
[48] = test system: SN12C renal
[49] = test system: NCI-H460 lung
[50] = test system: NCI-H522 lung
[51] = test system: HOP-92 NSCLC
[52] = test system: HS 578T breast
[53] = test system: COLO 205 colon
[54] = test system: SK-OV-3 ovarian
[55] = test system: A549 NSCLC
[56] = test system: HL-60(TB) leukemia
[57] = test system: SK-MEL-28 melanoma
[58] = test system: DU-145 prostate
[59] = test system: SNB-75 CNS

SMILES: O=c1[nH]c2ccc(Cl)cc2c2oc(-c3ccccc3)nc12
- TGI [1]: > 100 µM
- TGI [2]: > 100 µM
- TGI [3]: 85.8 µM
- TGI [4]: > 100 µM
- TGI [5]: 62.3 µM
- TGI [6]: > 100 µM
- TGI [7]: 80.7 µM
- TGI [8]: 43.4 µM
- TGI [9]: 64.7 µM
- TGI [10]: 46.6 µM
- TGI [11]: 43.6 µM
- TGI [12]: 24.8 µM
- TGI [13]: > 100 µM
- TGI [14]: > 100 µM
- TGI [15]: > 100 µM
- TGI [16]: > 100 µM
- TGI [17]: 42.3 µM
- TGI [18]: 79 µM
- TGI [19]: 30 µM
- TGI [20]: 78 µM
- TGI [21]: 86.6 µM
- TGI [22]: > 100 µM
- TGI [23]: > 100 µM
- TGI [24]: > 100 µM
- TGI [25]: > 100 µM
- TGI [26]: 74.9 µM
- TGI [27]: 43.1 µM
- TGI [28]: > 100 µM
- TGI [29]: > 100 µM
- TGI [30]: > 100 µM
- TGI [31]: > 100 µM
- TGI [32]: > 100 µM
- TGI [33]: > 100 µM
- TGI [34]: 43.4 µM
- TGI [35]: 51.3 µM
- TGI [36]: 39.7 µM
- TGI [37]: 35.4 µM
- TGI [38]: 57.5 µM
- TGI [39]: 36.8 µM
- TGI [40]: 44.2 µM
- TGI [41]: 32.8 µM
- TGI [42]: > 100 µM
- TGI [43]: 46.6 µM
- TGI [44]: > 100 µM
- TGI [45]: 71.8 µM
- TGI [46]: 89.8 µM
- TGI [47]: 50.4 µM
- TGI [48]: 41.8 µM
- TGI [49]: 36.9 µM
- TGI [50]: 32.3 µM
- TGI [51]: 52.2 µM
- TGI [52]: 41.2 µM
- TGI [53]: > 100 µM
- TGI [54]: 44.1 µM
- TGI [55]: 54.3 µM

SMILES: O=C(C=P(c1ccccc1)(c1ccccc1)c1ccccc1)c1cccc(-c2cccc([N+](=O)[O-])c2)c1
- TGI [1]: 26.8 µM
- TGI [3]: 5.93 µM
- TGI [4]: > 100 µM
- TGI [6]: 54.4 µM
- TGI [7]: > 100 µM
- TGI [8]: 7.04 µM
- TGI [9]: 4.53 µM
- TGI [10]: > 100 µM
- TGI [11]: > 100 µM
- TGI [12]: > 100 µM
- TGI [13]: 5.37 µM
- TGI [14]: 9.63 µM
- TGI [15]: 20.9 µM
- TGI [18]: > 100 µM
- TGI [19]: > 100 µM
- TGI [20]: 9.28 µM
- TGI [21]: > 100 µM
- TGI [22]: > 100 µM
- TGI [23]: > 100 µM
- TGI [25]: > 100 µM
- TGI [26]: 26.4 µM
- TGI [27]: > 100 µM
- TGI [28]: 7.63 µM
- TGI [29]: > 100 µM
- TGI [30]: 38.4 µM
- TGI [31]: > 100 µM
- TGI [32]: 4.17 µM
- TGI [33]: > 100 µM
- TGI [56]: 4.82 µM
- TGI [34]: 7.87 µM
- TGI [35]: 15.7 µM
- TGI [36]: 6.26 µM
- TGI [37]: 15.5 µM
- TGI [39]: > 100 µM
- TGI [57]: 10.9 µM
- TGI [40]: 20.3 µM
- TGI [41]: > 100 µM
- TGI [42]: 6.95 µM
- TGI [43]: 35.3 µM
- TGI [58]: > 100 µM
- TGI [44]: 21.1 µM
- TGI [45]: > 100 µM
- TGI [59]: 7.62 µM
- TGI [46]: > 100 µM
- TGI [47]: > 100 µM
- TGI [48]: > 100 µM
- TGI [49]: > 100 µM
- TGI [50]: 4.4 µM
- TGI [51]: 5.77 µM
- TGI [52]: > 100 µM
- TGI [53]: 2.91 µM
- TGI [54]: 51.2 µM
- TGI [55]: > 100 µM
